Measurements: ChEMBL document CHEMBL1130639, “Synthesis of anti-rheumatic agent epoxyquinomicin B” (Bioorg Med Chem Lett, 1998)

Assay: Lethal dose upon intraperitoneal administration.
Assay type: ADME
Conditions: ip

## O=C(NC1=CC(=O)[C@]2(CO)O[C@@H]2C1=O)c1ccccc1O
  LD50: 50 mg/kg
